Experimental data: the supplement of paper PMC10331698
± gives the standard deviation of the averaged measurements.

What was measured:
Experiment in all cases: level (log10 ratio to DMSO vehicle control); higher = higher biomarker level / cell amount than vehicle control
Settings in all cases: in DMSO
Perfluorobutanoic acid = compound: O=C(O)C(F)(F)C(F)(F)C(F)(F)F [Perfluorobutanoic acid]
Experimental: (§1)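 BioMAP Diversity Plus panel of 12 human primary cell co-culture systems (3C, 4H, LPS, SAg, BT, BF4T, BE3C, CASM3C, HDF3CGF, KF3CT, MyoF, Mphg). Compounds were added 1 h before stimulation and left for 24 h (MyoF 48 h; BT 72 h for soluble read-outs or 6 d for IgG). Biomarkers were read by ELISA, cytotoxicity by SRB, PBMC viability and proliferation by Alamar Blue. Each well value was divided by the mean of 8 DMSO control wells on the same plate and log10 transformed; duplicate blinded samples were tested at 4 concentrations.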

[1] = compound: FC(F)(F)C(F)(F)C(F)(F)C(F)(F)C(F)(F)C(F)(F)C(F)(F)C(F)(F)CCS [2-(Perfluorooctyl)ethanthiol]
Experimental: as §1

[2] = compound: O=C(O)C(F)(F)OC(F)(F)C(F)(F)OC(F)(F)C(=O)O [Perfluoro-3,6-dioxaoctane-1,8-dioic acid]
Experimental: as §1

Perfluoroheptanoic acid = compound: O=C(O)C(F)(F)C(F)(F)C(F)(F)C(F)(F)C(F)(F)C(F)(F)F [Perfluoroheptanoic acid]
Experimental: as §1

Perfluoropropanoic acid = compound: O=C(O)C(F)(F)C(F)(F)F [Perfluoropropanoic acid]
Experimental: as §1

[3] = compound: OCC(F)(F)OC(F)(F)C(F)(F)OC(F)(F)CO [1H,1H,8H,8H-Perfluoro-3,6-dioxaoctane-1,8-diol]
Experimental: as §1

[4] = compound: C=CC(=O)OCC(F)(F)C(F)(F)C(F)(F)C(F)(F)C(F)(F)C(F)(F)C(F)(F)F [1H,1H-Perfluorooctyl acrylate]
Experimental: as §1

Test System | level (log10) (Perfluorobutanoic acid; 6700 nM) | level (log10) (Perfluorobutanoic acid; 20000 nM) | level (log10) (Perfluorobutanoic acid; 60000 nM) | level (log10) ([1]; 6700 nM) | level (log10) ([1]; 20000 nM) | level (log10) ([2]; 6700 nM) | level (log10) ([2]; 20000 nM) | level (log10) ([2]; 60000 nM) | level (log10) (Perfluoroheptanoic acid; 6700 nM) | level (log10) (Perfluoroheptanoic acid; 20000 nM) | level (log10) (Perfluoroheptanoic acid; 60000 nM) | level (log10) (Perfluoropropanoic acid; 6700 nM) | level (log10) (Perfluoropropanoic acid; 20000 nM) | level (log10) (Perfluoropropanoic acid; 60000 nM) | level (log10) ([3]; 6700 nM) | level (log10) ([3]; 20000 nM) | level (log10) ([3]; 60000 nM) | level (log10) ([4]; 6700 nM) | level (log10) ([4]; 20000 nM) | level (log10) ([4]; 60000 nM)
lMphg:CD62E/E-Selectin | 0.0155 ± 0.036 | 0.027 ± 0.041 | 0.0175 ± 0.023 | -0.013 ± 0.013 | -0.0295 ± 0.011 | -0.027 ± 0.034 | -0.018 ± 0.016 | 0.0185 ± 0.0092 | -0.026 ± 0.0028 | 0 ± 0.024 | 0.025 ± 0.018 | -0.008 ± 0.0057 | -0.004 ± 0.0099 | 0.0385 ± 0.0035 | -0.0235 ± 0.019 | 0.004 ± 0.033 | -0.003 ± 0.03 | -0.0075 ± 0.023 | 0.004 ± 0.017 | -0.004 ± 0.021
BE3C:PAI-I | -0.011 ± 0.011 | -0.025 ± 0.023 | -0.0085 ± 0.0035 | -0.015 ± 0.044 | -0.05 ± 0.011 | -0.013 ± 0.0042 | -0.0105 ± 0.019 | 0.0065 ± 0.022 | 0.007 ± 0.0028 | 0.027 ± 0.0057 | 0.042 ± 0.021 | -0.029 ± 0.045 | -0.0065 ± 0.057 | 0.017 ± 0.052 | -0.0105 ± 0.005 | -0.0235 ± 0.0092 | 0.01 ± 0.021 | -0.0295 ± 0.018 | -0.0285 ± 0.028 | -0.028 ± 0.03
lMphg:M-CSF | -0.023 ± 0.024 | -0.0005 ± 0.011 | 0.024 ± 0.031 | -0.0075 ± 0.023 | 0.012 ± 0.0028 | -0.009 | -0.0185 ± 0.015 | 0.01 ± 0.042 | -0.006 ± 0.0014 | -0.001 ± 0.016 | 0.005 ± 0.0071 | -0.014 ± 0.0085 | -0.0155 ± 0.00071 | 0.003 ± 0.017 | -0.011 ± 0.0071 | -0.004 ± 0.0085 | -0.01 ± 0.0028 | 0.015 ± 0.0028 | -0.0245 ± 0.023 | -0.027 ± 0.034
MyoF:alpha-SM Actin | 0.006 ± 0.037 | 0.003 ± 0.031 | 0.024 ± 0.058 | -0.0145 ± 0.036 | -0.103 ± 0.037 | 0.001 | -0.0125 ± 0.013 | 0.0245 ± 0.0021 | -0.028 ± 0.035 | -0.0365 ± 0.022 | -0.022 ± 0.024 | -0.031 ± 0.035 | -0.013 ± 0.017 | 0.011 ± 0.0057 | 0.003 ± 0.0057 | 0.013 ± 0.017 | 0.004 ± 0.018 | 0.016 ± 0.0085 | -0.0215 ± 0.032 | -0.0185 ± 0.039
CASM3C:CD87/uPAR | -0.005 ± 0.013 | 0.0095 ± 0.0021 | -0.0085 ± 0.026 | -0.0395 ± 0.053 | -0.0205 ± 0.04 | -0.023 ± 0.03 | -0.023 ± 0.018 | -0.0255 ± 0.00071 | -0.0005 ± 0.0078 | -0.019 ± 0.031 | -0.0055 ± 0.036 | -0.0215 ± 0.019 | -0.008 ± 0.038 | 0.001 ± 0.013 | 0.0135 ± 0.00071 | -0.0085 ± 0.0078 | -0.016 ± 0.0085 | 0.0095 ± 0.028 | 0.0135 ± 0.021 | 0.0235 ± 0.019
BE3C:MMP-9 | -0.0075 ± 0.021 | -0.007 ± 0.035 | -0.0145 ± 0.015 | -0.0195 ± 0.011 | -0.069 ± 0.018 | -0.0115 ± 0.0078 | -0.0035 ± 0.028 | 0.0385 ± 0.00071 | 0.0015 ± 0.018 | 0.042 ± 0.0014 | 0.0785 ± 0.057 | 0.0075 ± 0.025 | 0.0025 ± 0.018 | 0.0265 ± 0.012 | -0.0115 ± 0.028 | 0.02 ± 0.04 | -0.006 ± 0.013 | -0.0135 ± 0.025 | -0.013 ± 0.024 | -0.022 ± 0.018
MyoF:Collagen IV | -0.032 ± 0.051 | -0.0215 ± 0.04 | -0.0055 ± 0.018 | -0.009 ± 0.09 | 0.012 ± 0.05 | -0.0165 ± 0.013 | -0.011 ± 0.031 | 0.0295 ± 0.00071 | -0.0175 ± 0.022 | -0.014 ± 0.013 | 0.0305 ± 0.07 | 0.0075 ± 0.0021 | -0.007 ± 0.011 | 0.0145 ± 0.019 | -0.021 ± 0.013 | -0.0125 ± 0.015 | 0.0065 ± 0.032 | 0.034 ± 0.054 | 0.03 ± 0.035 | 0.062 ± 0.071
MyoF:bFGF | 0.0025 ± 0.0078 | 0.0095 ± 0.0078 | 0.0155 ± 0.0035 | -0.0075 ± 0.019 | -0.017 ± 0.0014 | 0.0075 ± 0.021 | 0.001 ± 0.0099 | 0 ± 0.018 | -0.029 ± 0.0085 | -0.0255 ± 0.013 | -0.0075 ± 0.0021 | -0.0175 ± 0.016 | 0.01 ± 0.0028 | 0.015 ± 0.038 | -0.001 ± 0.016 | 0.0075 ± 0.011 | 0.004 ± 0.0057 | 0.003 | -0.0055 ± 0.0021 | 0.012 ± 0.024
lMphg:CD106/VCAM-1 | -0.0165 ± 0.025 | -0.007 ± 0.034 | -0.0085 ± 0.022 | -0.0055 ± 0.0064 | -0.0365 ± 0.011 | -0.013 ± 0.0071 | -0.0165 ± 0.0021 | -0.0165 ± 0.036 | -0.0115 ± 0.005 | 0.001 ± 0.0014 | -0.0095 ± 0.032 | -0.008 ± 0.013 | 0.0185 ± 0.0035 | 0.023 ± 0.016 | -0.0355 ± 0.05 | -0.0035 ± 0.012 | -0.028 ± 0.034 | -0.0115 ± 0.022 | -0.001 ± 0.018 | -0.0145 ± 0.037
MyoF:CXCL8/IL-8 | -0.03 ± 0.1 | -0.0355 ± 0.073 | 0.025 ± 0.024 | -0.0085 ± 0.011 | 0.007 ± 0.016 | -0.0025 ± 0.023 | -0.012 ± 0.0085 | 0.034 ± 0.045 | 0.002 ± 0.0042 | 0.0205 ± 0.005 | 0.0175 ± 0.035 | -0.0055 ± 0.029 | -0.004 ± 0.085 | 0.022 ± 0.075 | 0.006 ± 0.11 | 0.0205 ± 0.088 | 0.0365 ± 0.069 | 0.002 ± 0.0099 | 0.037 ± 0.062 | 0.0185 ± 0.036
lMphg:SRB-Mphg | -0.059 ± 0.054 | -0.0275 ± 0.18 | 0.0175 ± 0.17 | 0.007 ± 0.0057 | 0.0105 ± 0.018 | -0.0025 ± 0.0035 | -0.009 ± 0.016 | -0.003 ± 0.0099 | -0.003 ± 0.014 | 0.005 ± 0.0071 | 0.004 ± 0.0042 | -0.0375 ± 0.035 | -0.096 ± 0.057 | -0.0265 ± 0.1 | -0.015 ± 0.033 | 0.0175 ± 0.023 | 0.0455 ± 0.077 | -0.002 ± 0.011 | -0.0015 ± 0.0078 | 0.0045 ± 0.018
BE3C:uPA | -0.0065 ± 0.026 | -0.007 ± 0.011 | -0.015 ± 0.014 | 0.0045 ± 0.00071 | -0.0085 ± 0.016 | -0.0145 ± 0.005 | -0.013 ± 0.014 | -0.0025 ± 0.0064 | -0.002 ± 0.0042 | 0.0055 ± 0.0035 | 0.0255 ± 0.015 | -0.0165 ± 0.044 | 0.0015 ± 0.044 | 0.003 ± 0.041 | -0.01 ± 0.0042 | 0 ± 0.037 | -0.016 ± 0.0057 | -0.003 ± 0.0099 | 0.005 ± 0.0099 | 0.0055 ± 0.00071
3C:CD54/ICAM-1 | -0.0185 ± 0.019 | -0.029 ± 0.017 | -0.03 ± 0.024 | -0.0055 ± 0.012 | 0.0005 ± 0.016 | -0.0005 ± 0.0092 | -0.019 ± 0.0085 | -0.0135 ± 0.0035 | 0.0025 ± 0.0035 | -0.0095 ± 0.0092 | 0.008 ± 0.023 | -0.0365 ± 0.012 | -0.0085 ± 0.0064 | 0.017 ± 0.02 | -0.0015 ± 0.016 | -0.0005 ± 0.0064 | -0.0035 ± 0.011 | 0.002 ± 0.0014 | 0 ± 0.0099 | 0 ± 0.018
CASM3C:CCL2/MCP-1 | -0.0125 ± 0.0078 | -0.025 ± 0.027 | -0.001 ± 0.041 | 0.008 ± 0.0014 | 0.0155 ± 0.0092 | -0.033 ± 0.037 | -0.034 ± 0.027 | 0.021 ± 0.02 | -0.0115 ± 0.015 | -0.013 ± 0.011 | 0.032 ± 0.044 | 0.0025 ± 0.012 | -0.0025 ± 0.019 | 0.0055 ± 0.00071 | -0.026 ± 0.041 | -0.022 ± 0.017 | -0.017 ± 0.013 | -0.0035 ± 0.0078 | -0.0095 ± 0.0035 | -0.004 ± 0.0071
KF3CT:CXCL10/IP-10 | 0.008 ± 0.0042 | -0.005 ± 0.0014 | -0.002 ± 0.0028 | -0.025 ± 0.0042 | -0.01 ± 0.0057 | 0.0045 ± 0.011 | 0.0095 ± 0.022 | 0.029 ± 0.0085 | -0.003 ± 0.018 | 0.0125 ± 0.026 | 0.0155 ± 0.023 | -0.022 ± 0.033 | 0.004 ± 0.014 | 0.019 ± 0.0085 | 0.0025 ± 0.005 | -0.001 ± 0.0028 | 0.004 ± 0.0028 | 0.0055 ± 0.0035 | 0 ± 0.0071 | -0.003 ± 0.014
